Measured values: patent US20240228555A9, “ANTIMICROBIAL PEPTIDOMIMETICS” (Basilea Pharmaceutica International AG, Allschwil, priority 2020, published 2024)
Where a SMILES comes first, the peptide text is derived from it.

Legend:
[1] = test system: Klebsiella pneumoniae SSI3010; conditions: SSI3010
In short: (§1)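 First, bacterial colonies are suspended in saline and adjusted to 0.5 McFarland. Next, the suspension is diluted into cation-adjusted Mueller-Hinton II broth (approx. 5×10^5 CFU/mL). Finally, it is added to two-fold serially diluted peptide, with polysorbate 80 at 0.002% final.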

[2] = test system: Escherichia coli ATCC 25922; conditions: ATCC 25922
In short: as §1

[3] = test system: Escherichia coli MCR-1 Af 45; conditions: Mueller-Hinton broth II, no visible growth after 18-20 hours at 35° C.
In short: as §1

[4] = test system: human red blood cells (hRBC); format: cell-based; conditions: red cells of human, 1 h, 0.2 g/L
In short: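 Percent lysis was derived from supernatant absorbance at 540 nm relative to full lysis by 2.5% Triton X-100 (PBS defines 0%). Compounds, 200 μg/mL, were exposed for 1 h at 37° C to a 20% (v/v) suspension of washed human red cells.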

CC[C@H](C)[C@H](NC(=O)[C@@H](NC(=O)[C@@H]1C[C@@H](N)CN1C(=O)[C@@H](N)C(C)C)[C@@H](C)CC)C(=O)N[C@@H](Cc1ccc(O)cc1)C(=O)N[C@@H]1C(=O)N[C@@H](CC(N)=O)C(=O)N[C@@H](CCCNC(=N)N)C(=O)N[C@@H](CCN)C(=O)N[C@@H]([C@@H](C)O)C(=O)N[C@H](CCN)C(=O)N[C@@H](CCCCN)C(=O)N[C@H](C(=O)N[C@@H](CO)C(=O)N[C@@H](CCCNC(=N)N)C(=O)N[C@@H](Cc2ccc(O)cc2)C(=O)O)CSSC1(C)C [Example 93, Val-Pro((4R)NH2)-Ile-Ile-Tyr-Pen-Asn-Arg-Dab-Thr-^DDab-Lys-Cys-Ser-Arg-Tyr] (HELM PEPTIDE1{V.[N[C@@H]1C[C@@H](C(=O)[*:2])N([*:1])C1].I.I.Y.[Pen].N.R.[Dab].T.[NCC[C@@H](N[*:1])C(=O)[*:2]].K.C.S.R.Y}$PEPTIDE1,PEPTIDE1,6:R3-13:R3$$$V2.0)
Klebsiella pneumoniae SSI3010 MIC [1]: 0.25 µg/mL | Escherichia coli ATCC 25922 MIC [2]: 0.25 µg/mL | Escherichia coli MCR-1 Af 45 MIC [3]: 0.0625 µg/mL | Hemolysis at 0.2 g/L [4]: <1%

CC[C@H](C)[C@H](NC(=O)[C@@H]1C[C@@H](O)CN1C(=O)[C@@H](N)C(C)C)C(=O)N[C@@H](CCN)C(=O)N[C@@H](Cc1ccc(O)cc1)C(=O)N[C@@H]1C(=O)N[C@@H](CC(N)=O)C(=O)N[C@@H](CCCNC(=N)N)C(=O)N[C@@H](CCN)C(=O)N[C@@H]([C@@H](C)O)C(=O)N[C@H](CCN)C(=O)N[C@@H](CCCNC(N)=O)C(=O)N[C@H](C(=O)N[C@@H](CCN)C(=O)N[C@@H](CO)C(=O)N[C@@H](Cc2ccc(O)cc2)C(=O)O)CSSC1(C)C [Example 108, Val-Hyp-Ile-Dab-Tyr-Pen-Asn-Arg-Dab-Thr-^DDab-Cit-Cys-Dab-Ser-Tyr] (HELM PEPTIDE1{V.[Hyp].I.[Dab].Y.[Pen].N.R.[Dab].T.[NCC[C@@H](N[*:1])C(=O)[*:2]].[Cit].C.[Dab].S.Y}$PEPTIDE1,PEPTIDE1,6:R3-13:R3$$$V2.0)
Klebsiella pneumoniae SSI3010 MIC [1]: 0.25 µg/mL | Escherichia coli ATCC 25922 MIC [2]: 0.25 µg/mL | Escherichia coli MCR-1 Af 45 MIC [3]: 0.125 µg/mL | Hemolysis at 0.2 g/L [4]: <1%

CC[C@H](C)[C@H](NC(=O)[C@@H]1C[C@@H](O)CN1C(=O)[C@@H](N)C(C)C)C(=O)N[C@@H](CCN)C(=O)N[C@@H](Cc1ccc(O)cc1)C(=O)N[C@@H]1C(=O)N[C@@H](CC(N)=O)C(=O)N[C@@H](CCCNC(=N)N)C(=O)N[C@@H](CCN)C(=O)N[C@@H]([C@@H](C)O)C(=O)N[C@H](CCN)C(=O)N[C@@H](CCCCN)C(=O)N[C@H](C(=O)N[C@@H](CCN)C(=O)N[C@@H](CCCN)C(=O)N[C@@H](Cc2ccc(O)cc2)C(=O)O)CSSC1(C)C [Example 89, Val-Hyp-Ile-Dab-Tyr-Pen-Asn-Arg-Dab-Thr-^DDab-Lys-Cys-Dab-Orn-Tyr] (HELM PEPTIDE1{V.[Hyp].I.[Dab].Y.[Pen].N.R.[Dab].T.[NCC[C@@H](N[*:1])C(=O)[*:2]].K.C.[Dab].[Orn].Y}$PEPTIDE1,PEPTIDE1,6:R3-13:R3$$$V2.0)
Klebsiella pneumoniae SSI3010 MIC [1]: 0.25 µg/mL | Escherichia coli ATCC 25922 MIC [2]: 0.0625 µg/mL | Escherichia coli MCR-1 Af 45 MIC [3]: 0.0625 µg/mL | Hemolysis at 0.2 g/L [4]: <1%

CC[C@H](C)[C@H](NC(=O)[C@@H](NC(=O)[C@@H]1C[C@@H](N)CN1C(=O)[C@@H](N)C(C)C)[C@@H](C)CC)C(=O)N[C@@H](Cc1ccc(O)cc1)C(=O)N[C@@H]1C(=O)N[C@@H](CC(N)=O)C(=O)N[C@@H](CCCNC(=N)N)C(=O)N[C@@H](CCN)C(=O)N[C@@H]([C@@H](C)O)C(=O)N[C@H](CCN)C(=O)N[C@@H]([C@@H](C)CC)C(=O)N[C@H](C(=O)N[C@@H](CCN)C(=O)N[C@@H](CCCNC(=N)N)C(=O)N[C@@H](Cc2ccc(O)cc2)C(=O)O)CSSC1(C)C [Example 90, Val-Pro((4R)NH2)-Ile-Ile-Tyr-Pen-Asn-Arg-Dab-Thr-^DDab-Ile-Cys-Dab-Arg-Tyr] (HELM PEPTIDE1{V.[N[C@@H]1C[C@@H](C(=O)[*:2])N([*:1])C1].I.I.Y.[Pen].N.R.[Dab].T.[NCC[C@@H](N[*:1])C(=O)[*:2]].I.C.[Dab].R.Y}$PEPTIDE1,PEPTIDE1,6:R3-13:R3$$$V2.0)
Klebsiella pneumoniae SSI3010 MIC [1]: 0.25 µg/mL | Escherichia coli ATCC 25922 MIC [2]: 0.125 µg/mL | Escherichia coli MCR-1 Af 45 MIC [3]: 0.0625 µg/mL | Hemolysis at 0.2 g/L [4]: <1%

CC[C@H](C)[C@H](NC(=O)[C@@H]1CC(F)(F)CN1C(=O)[C@@H](N)C(C)C)C(=O)N[C@H](C(=O)N[C@@H](Cc1ccc(O)cc1)C(=O)N[C@@H]1C(=O)N[C@@H](CC(N)=O)C(=O)N[C@@H](CCCNC(=N)N)C(=O)N[C@@H](CCN)C(=O)N[C@@H]([C@@H](C)O)C(=O)N[C@H](CCN)C(=O)N[C@@H](CCCCN)C(=O)N[C@H](C(=O)N[C@@H](CCN)C(=O)N[C@@H](CCCNC(=N)N)C(=O)N[C@@H](Cc2ccc(O)cc2)C(=O)O)CSSC1(C)C)[C@@H](C)O [Example 127, Val-Pro(4,4F2)-Ile-Thr-Tyr-Pen-Asn-Arg-Dab-Thr-^DDab-Lys-Cys-Dab-Arg-Tyr] (HELM PEPTIDE1{V.[O=C([C@@H]1CC(F)(F)CN1[*:1])[*:2]].I.T.Y.[Pen].N.R.[Dab].T.[NCC[C@@H](N[*:1])C(=O)[*:2]].K.C.[Dab].R.Y}$PEPTIDE1,PEPTIDE1,6:R3-13:R3$$$V2.0)
Klebsiella pneumoniae SSI3010 MIC [1]: 0.5 µg/mL | Escherichia coli ATCC 25922 MIC [2]: 0.25 µg/mL | Escherichia coli MCR-1 Af 45 MIC [3]: 0.125 µg/mL | Hemolysis at 0.2 g/L [4]: <1%

CC[C@H](C)[C@@H]1NC(=O)[C@@H](NC(=O)[C@H](Cc2ccc(O)cc2)NC(=O)[C@@H](NC(=O)[C@@H](NC(=O)[C@@H]2C[C@@H](O)CN2C(=O)[C@@H](N)C(C)C)[C@@H](C)CC)[C@@H](C)O)C(C)(C)SSC[C@@H](C(=O)N[C@@H](CCN)C(=O)N[C@@H](CO)C(=O)N[C@@H](Cc2ccc(O)cc2)C(=O)O)NC(=O)[C@H](CCCCN)NC(=O)[C@@H](CCN)NC(=O)[C@H]([C@@H](C)O)NC(=O)[C@H](CCN)NC(=O)[C@H](CCCNC(=N)N)NC1=O [Example 99, Val-Hyp-Ile-Thr-Tyr-Pen-Ile-Arg-Dab-Thr-^DDab-Lys-Cys-Dab-Ser-Tyr] (HELM PEPTIDE1{V.[Hyp].I.T.Y.[Pen].I.R.[Dab].T.[NCC[C@@H](N[*:1])C(=O)[*:2]].K.C.[Dab].S.Y}$PEPTIDE1,PEPTIDE1,6:R3-13:R3$$$V2.0)
Klebsiella pneumoniae SSI3010 MIC [1]: 0.25 µg/mL | Escherichia coli ATCC 25922 MIC [2]: 0.125 µg/mL | Escherichia coli MCR-1 Af 45 MIC [3]: 0.125 µg/mL | Hemolysis at 0.2 g/L [4]: <1%

CC[C@H](C)[C@H](NC(=O)[C@@H](NC(=O)[C@@H]1C[C@@H](N)CN1C(=O)[C@@H](N)C(C)C)[C@@H](C)CC)C(=O)N[C@@H](Cc1ccc(O)cc1)C(=O)N[C@@H]1C(=O)N[C@@H](CC(N)=O)C(=O)N[C@@H](CCCNC(=N)N)C(=O)N[C@@H](CCN)C(=O)N[C@@H]([C@@H](C)O)C(=O)N[C@H](CCN)C(=O)N[C@@H](CCCCN)C(=O)N[C@H](C(=O)N[C@@H](CCN)C(=O)N[C@H](C(=O)N[C@@H](Cc2ccc(O)cc2)C(=O)O)[C@@H](C)O)CSSC1(C)C [Example 109, Val-Pro((4R)NH2)-Ile-Ile-Tyr-Pen-Asn-Arg-Dab-Thr-^DDab-Lys-Cys-Dab-Thr-Tyr] (HELM PEPTIDE1{V.[N[C@@H]1C[C@@H](C(=O)[*:2])N([*:1])C1].I.I.Y.[Pen].N.R.[Dab].T.[NCC[C@@H](N[*:1])C(=O)[*:2]].K.C.[Dab].T.Y}$PEPTIDE1,PEPTIDE1,6:R3-13:R3$$$V2.0)
Klebsiella pneumoniae SSI3010 MIC [1]: 0.25 µg/mL | Escherichia coli ATCC 25922 MIC [2]: 0.125 µg/mL | Escherichia coli MCR-1 Af 45 MIC [3]: 0.125 µg/mL | Hemolysis at 0.2 g/L [4]: <1%

CC[C@H](C)[C@H](NC(=O)[C@@H](NC(=O)[C@@H]1C[C@@H](O)CN1C(=O)[C@@H](N)C(C)C)[C@@H](C)CC)C(=O)N[C@@H](Cc1ccc(O)cc1)C(=O)N[C@@H]1C(=O)N[C@@H](CC(N)=O)C(=O)N[C@@H](CCCNC(=N)N)C(=O)N[C@@H](CCCNC(N)=O)C(=O)N[C@@H]([C@@H](C)O)C(=O)N[C@H](CCN)C(=O)N[C@@H](CCCCN)C(=O)N[C@H](C(=O)N[C@@H](CCN)C(=O)N[C@@H](CCCNC(=N)N)C(=O)N[C@@H](Cc2ccc(O)cc2)C(=O)O)CSSC1(C)C [Example 124, Val-Hyp-Ile-Ile-Tyr-Pen-Asn-Arg-Cit-Thr-^DDab-Lys-Cys-Dab-Arg-Tyr] (HELM PEPTIDE1{V.[Hyp].I.I.Y.[Pen].N.R.[Cit].T.[NCC[C@@H](N[*:1])C(=O)[*:2]].K.C.[Dab].R.Y}$PEPTIDE1,PEPTIDE1,6:R3-13:R3$$$V2.0)
Klebsiella pneumoniae SSI3010 MIC [1]: 0.5 µg/mL | Escherichia coli ATCC 25922 MIC [2]: 0.25 µg/mL | Escherichia coli MCR-1 Af 45 MIC [3]: 0.25 µg/mL | Hemolysis at 0.2 g/L [4]: <1%

CC[C@H](C)[C@H](NC(=O)[C@@H](NC(=O)[C@@H]1C[C@@H](O)CN1C(=O)[C@@H](N)C(C)C)[C@@H](C)CC)C(=O)N[C@@H](Cc1ccc(O)cc1)C(=O)N[C@@H]1C(=O)N[C@@H](CC(N)=O)C(=O)N[C@@H](CCCNC(=N)N)C(=O)N[C@@H](CCN)C(=O)N[C@@H]([C@@H](C)O)C(=O)N[C@H](CCN)C(=O)N[C@@H](CCCCN)C(=O)N[C@H](C(=O)N[C@@H](CCN)C(=O)N[C@@H](CCN)C(=O)N[C@@H](Cc2ccc(O)cc2)C(=O)O)CSSC1(C)C [Example 74, Val-Hyp-Ile-Ile-Tyr-Pen-Asn-Arg-Dab-Thr-^DDab-Lys-Cys-Dab-Dab-Tyr] (HELM PEPTIDE1{V.[Hyp].I.I.Y.[Pen].N.R.[Dab].T.[NCC[C@@H](N[*:1])C(=O)[*:2]].K.C.[Dab].[Dab].Y}$PEPTIDE1,PEPTIDE1,6:R3-13:R3$$$V2.0)
Klebsiella pneumoniae SSI3010 MIC [1]: 0.25 µg/mL | Escherichia coli ATCC 25922 MIC [2]: 0.125 µg/mL | Escherichia coli MCR-1 Af 45 MIC [3]: 0.0625 µg/mL | Hemolysis at 0.2 g/L [4]: <1%
